According to ChEMBL document CHEMBL1122397, “Synthesis and pharmacological characterization of (+/-)-5,9 alpha-dimethyl-2-[2-(4-fluorophenyl)ethyl]-2'-hydroxy-6,7-benzomorphan (fluorophen), a ligand suitable for visualization of opiate receptors in vivo” (J Med Chem, 1983):

Columns and labels:
Mus musculus = organism: Mus musculus; test: cells; details: Rattus norvegicus, Brain, 3 h
Opioid receptor = Opioid receptor (Rattus norvegicus, UniProt P33533+P34975+P33535); test: (§1) Ability to displace 50% of (+/-) ethylketocyclazocine (2.8) in rat brain homogenate; type: tissue-based
Rattus norvegicus [1] = organism: Rattus norvegicus; test: Relative potency in displacing ((+/-) ethylketocyclazocine (2.8)) in rat brain homogenate
Mu-type opioid receptor = Mu-type opioid receptor (Cavia porcellus, UniProt P97266); test: Ability to induce 50% of maximal effect in guinea pig ileum expressing Opioid receptor mu 1; type: tissue-based
Mu-type opioid receptor, sequence (P97266 whole entry): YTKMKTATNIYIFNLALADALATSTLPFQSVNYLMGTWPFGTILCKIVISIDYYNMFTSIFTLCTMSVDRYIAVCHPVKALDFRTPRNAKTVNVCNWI

[2] = molecular target: T1, Kappa-type opioid receptor (Homo sapiens, UniProt P41145); test: Relative potency to induce 50% of maximal effect in rabbit vas deferens expressing Opioid receptor kappa 1; details: Oryctolagus cuniculus
T1 sequence (P41145 whole entry): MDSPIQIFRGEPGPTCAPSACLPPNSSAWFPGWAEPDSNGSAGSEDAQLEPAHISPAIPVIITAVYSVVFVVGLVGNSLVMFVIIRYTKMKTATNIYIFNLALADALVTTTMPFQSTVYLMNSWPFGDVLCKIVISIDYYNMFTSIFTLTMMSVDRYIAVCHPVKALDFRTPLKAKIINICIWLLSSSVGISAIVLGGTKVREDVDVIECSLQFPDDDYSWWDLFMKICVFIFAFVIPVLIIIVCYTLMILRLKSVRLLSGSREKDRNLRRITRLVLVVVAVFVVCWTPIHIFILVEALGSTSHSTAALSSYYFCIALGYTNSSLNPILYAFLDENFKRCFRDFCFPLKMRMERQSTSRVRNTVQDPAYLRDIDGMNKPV

Rattus norvegicus [3] = organism: Rattus norvegicus; test: Ability to displace 50% of [3H]- labeled DADLE in rat brain homogenate
[4] = molecular target: Delta-type opioid receptor (Mus musculus) (UniProt P32300); test: Relative potency to induce 50% of maximal effect in mouse vas deferens expressing Opioid receptor delta 1
Delta-type opioid receptor (Mus musculus), sequence (P32300 whole entry, looked up): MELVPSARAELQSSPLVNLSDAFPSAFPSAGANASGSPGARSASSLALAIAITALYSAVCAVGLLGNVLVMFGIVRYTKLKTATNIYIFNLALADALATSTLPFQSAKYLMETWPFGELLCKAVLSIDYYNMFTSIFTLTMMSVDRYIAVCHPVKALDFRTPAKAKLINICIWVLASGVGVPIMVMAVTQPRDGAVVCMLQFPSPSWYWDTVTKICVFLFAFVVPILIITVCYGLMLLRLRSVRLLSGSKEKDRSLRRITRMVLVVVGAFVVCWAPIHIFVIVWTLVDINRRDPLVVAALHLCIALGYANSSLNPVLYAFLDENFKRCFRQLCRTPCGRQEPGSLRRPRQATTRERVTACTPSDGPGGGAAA

[5] = molecular target: Mu-type opioid receptor (Cavia porcellus) (UniProt P97266); test: Relative potency to induce 50% of maximal effect in guinea pig ileum expressing Opioid receptor mu 1; type: tissue-based
Mu-type opioid receptor (Cavia porcellus), sequence (P97266 whole entry): as the sequence (P97266 whole entry) above

Rattus norvegicus [6] = organism: Rattus norvegicus; test: as §1
Rattus norvegicus [7] = organism: Rattus norvegicus; test: Relative potency in displacing [3H]- labeled DADLE in rat brain homogenate
Rattus norvegicus [8] = organism: Rattus norvegicus; test: Relative potency in displacing (-) naloxone(1.0) in rat brain homogenate
Rattus norvegicus [9] = organism: Rattus norvegicus; test: Ability to displace 50% of (-) naloxone(1.0) in rat brain homogenate
[10] = molecular target: T1, Kappa-type opioid receptor; test: Ability to induce 50% of maximal effect in rabbit vas deferens expressing Opioid receptor kappa 1; type: tissue-based, Oryctolagus cuniculus

Compound `CC(C)C[C@H](NC(=O)[C@H](Cc1ccccc1)NC(=O)CNC(=O)CNC(=O)[C@@H](N)Cc1ccc(O)cc1)C(=O)O` [ENKEPHALIN] has an IC50 (Mus musculus) of 11 nM.
Work on `CC[C@@]12CCN(CC3CC3)C(C(=O)c3ccc(O)cc31)[C@@H]2C` [ETHYLKETOCYCLAZOCINE] yielded an IC50 (Opioid receptor) of 8.4 nM.
With `CC1C2Cc3ccc(O)cc3C1(C)CCN2CCc1ccccc1` (stereo not drawn) [PHENAZOCINE] the Relative Potency (Rattus norvegicus [1]) was 0.13, the IC50 (Mu-type opioid receptor) was 9.8 nM and the Relative Potency [2] was 0.4. It also gave an IC50 (Rattus norvegicus [3]) of 26 nM, a Relative Potency [4] of 1.2 and a Relative Potency [5] of 7.9. The IC50 (Rattus norvegicus [6]) was 65 nM, the Relative Potency (Rattus norvegicus [7]) was 0.42 and the Relative Potency (Rattus norvegicus [8]) was 2.4. For the same compound, the IC50 (Rattus norvegicus [9]) was 82 nM and the IC50 [10] was 121 nM.
